The source of these data is the NIST ThermoML archive (doi:10.1021/je100603q).

The structures appear in SMILES notation. Numbers after ± are expanded uncertainties.

A short description of series [1]: molar enthalpy of vaporization or sublimation. The following applies: 298.15 K; Crystal; Microcalorimetry.
Series [2] is described as follows: molar enthalpy of transition or fusion. The following applies: 298.15 K; Crystal; Microcalorimetry.

As to `O=C1CCSCC1` [tetrahydro-4H-thiopyran-4-one], the molar enthalpy in series [1] came out at 17.5 ± 0.669 kcal/mol.
As for `O=c1c2ccccc2sc2ccccc12` [thioxanthone], the “molar enthalpy of transition or fusion” value in series [2] turned out to be 25.5 ± 0.574 kcal/mol.
